Earlier results, collected in patent US6630442B1, “Reparatives for chemosurgery and laser (thermal) therapy” (priority 1997, dated 2003).

Columns and labels:
[1] = tested on: acute damage to the skin by sunburn induced by ultraviolet irradiation
[2] = tested on: psoriasis
[3] = tested on: skin damage by ultraviolet irradiation
[4] = tested on: lipid peroxidation in tissues; settings: tissues of vitamin E deficient chicks
[5] = tested on: human leukocytes
[6] = tested on: partial thickness burns or split thickness epidermal burns; settings: mixed with topical creams, applied twice daily
[7] = tested on: cells; settings: in vitro
[8] = tested on: granulating wounds; settings: applied to granulating wounds

C[Se]CC[C@H](N)C(=O)O [selenomethionine]
protection against acute UV damage to the skin, measured by the minimal erythema dose ([1]; eight women, topical lotion 0.002%, 0.02% and 0.05%, solar ultraviolet simulator): effective in protecting against acute UV damage to the skin
plasma levels of selenium ([1]; volunteers after topical selenomethionine): remained unchanged
number of CD4+ T-cells in the reticular dermis of psoriatic lesions ([2]; human, in vivo): statistically significant increase
skin levels of selenium dependent glutathione peroxidase ([2]; normal and psoriatic skin): unchanged
increase in blood selenium post treatment ([2]; psoriasis patients with normal pretreatment selenium blood levels): 40%
skin damage by ultraviolet irradiation (inflammation and pigmentation) ([3]; mice treated with selenomethionine): significantly less skin damage by ultraviolet irradiation
onset and incidence of skin cancers ([3]; mice treated with selenomethionine, UV irradiation): later onset and lesser incidence of skin cancers
selenium toxicity ([3]; mouse, in vivo, po): no evidence of selenium toxicity
concentration of selenium in skin in areas of topical application ([3]; topical lotion versus comparable oral doses): greater than those of the experimental animals given comparable oral doses
in vivo lipid peroxidation [4]: inhibits in vivo lipid peroxidation

(−)epigallo catechin gallate [EGCG]
hydrogen peroxide formation [5]: inhibits hydrogen peroxide formation

EGF: Epidermal growth factor is a 53 amino acid polypeptide which stimulates messenger RNA, DNA and protein synthesis (NSDSECPLSHDGYCLHDGVCMYIEALDKYACNCVVGYIGERCQYRDLKWWELR; Epidermal growth factor; UniProt P01133 971-1023, looked up)
healing process of wounds [6]: highly significant increase in the healing process
exposure time needed to yield a mitogenic signal [7]: about five hours
concentrations of wound DNA and collagen hydroxyproline [8]: increase both the concentrations of DNA associated with cutaneous injury and of collagen hydroxyproline
